The values below come from patent publication US20250319067A1, “Improved Pharmacokinetics of Tryptamine Prodrugs” (Reunion Neuroscience, Inc., priority 2023, published 2025).

The test system of data set [1] is rats. Put plainly: Behavioral safety pharmacology study in rats. The data set is classed as in vivo. The conditions noted are these: rat. As for the experimental part: In a behavioral study in rats, single SC administration of 10, 25 or 50 mg/kg RE104 HCl induced significant acute, and reversible neuro-pharmacological effects; however, all observations were attributed to exaggerated pharmacologic effects at the serotonin receptor of the test article (i.e., SS). The incidence and duration of observations were dose related.

Another data set has as its system male rats. Put plainly: Respiratory function study in male rats. The data set is classed as in vivo, rat. The conditions noted are these: single SC 10, 25, and 50 mg/kg. As for the experimental part:
In a respiratory function study in male rats, at single SC doses of 10, 25, and 50 mg/kg, RE104 HCl produced increases in respiration rate (8-28%) and decreases in tidal volume (28-30%) and minute volume (24-31%). All these changes were transient and returned to pre-dose values by the 6-hour post-dose reading. Based upon the small magnitude and the transient nature of these changes, the changes were not considered adverse.

Data set [2] has as its system rats. Put plainly: GLP 14-day extended single SC dose toxicity study in rats. As for the experimental part: (§1) In a GLP 14-day extended single SC dose toxicity study in rats, doses of 0 (PBS), 10, 25 and 75 mg/kg were evaluated. Animals were necropsied on Study Day 2 and Day 14 (also referred to as Recovery Day 13) post-dosing.
(§2) A non-GLP dose range study was performed in the dog in order to determine an MTD. Single SC doses of 7.5, 15 and 20 mg/kg were evaluated.

Assay in data set [3]: as above
Particulars: female, Sprague Dawley, rat, in vivo, subcutaneous. The protocol:
as §1, §2

For data set [4], the system named is healthy females. Put plainly: Phase 1 FIH study: modified Drug Effect Questionnaire (DEQ-High). The data set is classed as in vivo, human. The protocol: (§3) The study was a double-blind, randomized, placebo-controlled Phase 1 single ascending dose study in up to 6 cohorts in healthy females. Eligibility was assessed during a screening period of up to 28 days prior to enrollment. For the treatment period, subjects were admitted to the clinical research unit (CRU) one day prior to the dosing (Day −1). On Day 1, all subjects will received the assigned SC dose of RE104 HCl or placebo in a fed state (after domiciling overnight and consuming a planned evening meal on Day −1 and morning meal on Day 1 while at the CRU). Subjects were allowed to select snacks from a planned menu from 4 hours following dosing. Subjects were discharged from the clinic on Day 2 (−24 hours post-dose) after all required study procedures were completed and if deemed medically fit. Subjects returned to the clinic on Day 10 (±2 days) for a follow up visit.
The Drug Effect Questionnaire (DEQ) Feel/High is widely used in studies of acute subjective response to a variety of substances, to assess two key aspects of subjective experience: (1) the strength of substance effects and (2) desirability of substance effects (Morean et al., 2013). The modified DEQ assesses the extent to which subjects (1) feel any substance effect(s) and (2) feel high. This version of the DEQ includes the following items: “Do you feel a drug effect right now?” (FEEL); “Are you high right now?” (HIGH). FIG. 2 sets out the modified DEQ that was used.
The modified DEQ was used as an 11-point numeric rating scale (0-10) administered by a qualified staff member. The subjects were asked to verbally respond to indicate how strongly they feel the drug effect and how high they feel on the scale of 0-10 after being administered the study drug (Kollltveit et al., 2020).

Data set [5] relates to healthy females. In words: Phase 1 FIH single ascending dose study: safety and tolerability (AEs). The data set is classed as in vivo, human. As for the experimental part: as §3
Six (6) cohorts were enrolled in the study. Six (6) single doses were tested in 6 cohorts (Cohort 1 to Cohort 6) of 8 healthy female subjects (6 active and 2 placebo), as indicated in FIG. 1 and Table 3.
The starting dose was 5.5 mg RE104 HCl. Sentinels were used in all cohorts. Within each cohort, 2 subjects were treated first: 1 subject received RE104 HCl and 1 subject received placebo.
The study was monitored by a safety review committee (SRC). […] Safety, tolerability, and available PK data were assessed by the SRC between each cohort before ascending to the next dose level (Table 3). After each cohort dosing was complete, the SRC met to discuss dose escalation. Escalation to the next higher dose level occurred only after evaluation of the safety and tolerability data up to and including at least 24 hours post-dose of all evaluable subjects in the previous dose cohort. Available PK results were requested for determination of dose escalation, as deemed necessary.
Dosing took place at a time point agreed to with the investigational pharmacy and acceptable to the investigator. RE104 HCl or placebo were administered as a SC injection in the upper arm. Subjects received RE104 HCl or placebo in a fed state. The time of administration of RE104 HCl or placebo was be recorded in the eCRF. The regimen used is outlined in Table 3.
Within each cohort, 2 sentinel subjects were treated first: 1 subject received RE104 HCl and 1 subject received placebo. […] All drug administration was be done under direct medical supervision. Study subjects were overseen during the potentially psychoactive study drug period by professionals trained to monitor psychedelic experiences.

The target in data set [6] is human ether-a-go-go-related gene (hERG) (Homo sapiens, UniProt Q12809). In words: hERG tail current assay. It is filed as cell-based. The conditions noted are these: 30 μM as zwitterion (highest concentration tested).
Data set [7] relates to healthy females. In words: Phase 1 FIH study: Mystical Experience Questionnaire (MEQ30). Particulars: 33 mg. It is filed as in vivo, human. The protocol:
as §3
The Mystical Experience Questionnaire (MEQ30) is a validated questionnaire that assesses individual episodes of a mystical experience produced by classic hallucinogens (Barrett et al. 2015). The validated MEQ30 uses thirty questions across 4 areas of experience: (i) Mystical (including items concerning internal unity, external unity, noetic quality, and sacredness); (ii) Positive mood; (iii) Transcendence of time and space; and (iv) Ineffability. The subjects will be asked to rate each item of the MEQ30 on a 6-point scale. FIG. 3 sets out the revised MEQ30 that was used.

For data set [8], the system named is conscious telemetered beagle dogs. Put plainly: Cardiovascular study in conscious telemetered beagle dogs. It is filed as in vivo. The conditions noted are these: dog.
The next data set deals with humans. Particulars: humans; cited from earlier work.
Data set [9] in a line: Prodrug cleavage in human plasma. The data set is classed as in vitro ADME. Particulars: human plasma (data not shown). The protocol: Mean values from 3 replicate assays are reported. See the Supplemental Methods for additional details.
Triplicate aliquots (50 μL) of each spiked plasma solution were immediately added to 200 μL of ice-cold methanol/acetonitrile solution (50:50 v/v) containing the internal standards to generate time zero samples. Spiked plasma solutions were incubated at 37° C. in an orbital shaker set to 75 rpm, and 50-μL samples were taken in triplicate after 30 minutes and 1, 2, and 4 hours of incubation. Each sample was immediately added to 200 μL ofice-cold methanol/acetonitrile solution containing the internal standard(s) to terminate the reaction. Samples were mixed by vortex and then stored at −80° C. until analysis.
Calibration standards were prepared in plasma for each species and analyzed in batches by LC-MS/MS. Sample batches consisted of 3 replicates of a system suitability standard (containing the analyte and internal standard), the appropriate calibration standards in ascending order including a blank sample without internal standard, a zero sample (with internal standard), and at least 6 nonzero standards and the assay samples, followed by the 3 replicates of the system suitability sample.

The test system of another data set is male Wistar rats. Put plainly: Forced swim test (FST) in rats. The data set is classed as in vivo, rat.
For data set [10] the following is noted: rat, oral Gymnopilus spectabilis (Chen et al.); cited from earlier work.
The conditions of data set [11]: in vivo; cited from earlier work.
Data set [12] can be described thus: Metabolite profiling in monkey plasma after SC RE104. The data set is classed as in vivo, cynomolgus monkey. The conditions noted are these: pooled plasma 0 to 12 hours post dose, SC 0.5 mg/kg RE104. The source says:
Blood samples were centrifuged to obtain plasma.

“Also recorded” adds a separate entry of the source. Counter-ions that a name gives are not always drawn.

human ether-a-go-go-related gene (hERG), sequence (Q12809 whole entry): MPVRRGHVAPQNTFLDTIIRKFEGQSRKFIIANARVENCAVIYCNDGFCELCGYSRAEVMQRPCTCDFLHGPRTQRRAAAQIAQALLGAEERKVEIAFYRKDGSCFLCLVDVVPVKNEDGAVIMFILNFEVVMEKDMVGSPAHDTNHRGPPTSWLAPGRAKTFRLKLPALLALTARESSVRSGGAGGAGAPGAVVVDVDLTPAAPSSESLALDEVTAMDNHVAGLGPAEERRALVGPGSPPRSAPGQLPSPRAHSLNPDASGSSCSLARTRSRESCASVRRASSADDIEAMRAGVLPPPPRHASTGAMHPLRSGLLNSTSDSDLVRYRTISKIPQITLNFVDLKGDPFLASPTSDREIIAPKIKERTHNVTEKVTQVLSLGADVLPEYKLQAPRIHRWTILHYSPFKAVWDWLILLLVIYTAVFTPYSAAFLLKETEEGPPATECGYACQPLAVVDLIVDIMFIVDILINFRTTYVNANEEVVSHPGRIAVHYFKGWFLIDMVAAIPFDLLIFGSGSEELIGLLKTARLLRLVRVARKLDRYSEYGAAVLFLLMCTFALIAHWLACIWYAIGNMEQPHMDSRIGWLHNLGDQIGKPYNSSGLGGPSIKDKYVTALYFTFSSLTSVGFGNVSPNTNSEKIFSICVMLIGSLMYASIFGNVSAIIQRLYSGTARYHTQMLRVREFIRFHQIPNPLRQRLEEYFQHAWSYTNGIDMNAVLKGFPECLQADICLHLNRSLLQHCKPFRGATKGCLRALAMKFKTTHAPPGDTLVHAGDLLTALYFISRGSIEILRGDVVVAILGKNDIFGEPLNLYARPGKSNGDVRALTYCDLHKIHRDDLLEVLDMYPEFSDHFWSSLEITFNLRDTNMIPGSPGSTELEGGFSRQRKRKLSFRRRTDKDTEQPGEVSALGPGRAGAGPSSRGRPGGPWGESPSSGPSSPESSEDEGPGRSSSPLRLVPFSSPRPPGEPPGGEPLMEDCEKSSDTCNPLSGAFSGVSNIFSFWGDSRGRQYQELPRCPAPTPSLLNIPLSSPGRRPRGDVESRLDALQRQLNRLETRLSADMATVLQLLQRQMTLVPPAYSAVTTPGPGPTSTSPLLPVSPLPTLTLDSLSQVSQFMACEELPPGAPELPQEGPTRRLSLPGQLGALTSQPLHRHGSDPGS

Take `CC(C)N(CCc1c[nH]c2cccc(OC(=O)CCCC(=O)O)c12)C(C)C` [RE104 HCl, 4-Glutaroyl-3-(2-diisopropylaminoethyl)-1H-indole hydrochloride]: the “time of neuro-pharmacological effects” value with rats [1] (single SC 10 mg/kg) is “effects were observed at 30 minutes (min) to 1 hour (h)”; with rats [1] (single SC 25 mg/kg), “effects were observed to 6 h”; with rats [1] (single SC 50 mg/kg), “effects were noted through 6 h post-dose but were resolved by 24 h”. Also, the “decreases in minute volume” value in the data set with male rats is reported as 24-31%. The “decreases in tidal volume” value with male rats is on record as 28-30%. Further, the “increases in respiration rate” value with male rats is on record as 8-28%. Besides, the “Fold Lower than Scaled NOAEL Dose” value is 19 with rats [2] (Cohort 1, 5.5 mg RE104 HCl); 9.7 with rats [2] (Cohort 2, 11 mg RE104 HCl); 4.9 in the data set on rats [2] (Cohort 3, 22 mg RE104 HCl); 3.2 with rats [2] (Cohort 4, 33 mg RE104 HCl). The MRSD with rats [2] (from rat NOAEL, 10-fold safety margin) is 9.7 mg. In [3], the NOAEL at 14 days was 10 mg/kg. Also, the “reduction of psychoactive experience relative to historical evidence with psilocybin” value in the data set on healthy females [4] (33 mg) is 50%. Besides, the “time of peak activity” value in the data set with healthy females [4] (33 mg SC) is “approx 1 h”. The “injection site adverse reactions” value with healthy females [5] (SC injection in the upper arm) is “No injection site adverse reactions were reported”. The “serious AEs” value in the data set with healthy females [5] (doses up to and including 44 mg) was “no serious AEs”. Further, the “blood pressure, vital sign, clinical laboratory, electrocardiogram findings” value in the data set on healthy females [5] (doses up to and including 44 mg, hydrochloride) is listed as “no evident blood pressure effects; also recorded: no clinically significant vital sign, clinical laboratory, or electrocardiogram findings”. Further, the “decrease in hERG current amplitude” value in data set [6] is reported as 5.9 ± 1.6%. The “MEQ total score and domain scores” value in the data set on healthy females [7] is on record as not below 60%. Moreover, the “effects on cardiac rhythm, ECG parameters or body temperature” value in data set [8] (SC 1, 3 or 8 mg/kg) is listed as “No significant biologically relevant effects”. Also, the “effect on heart rate and blood pressure” value is “Transient increases in heart rate and blood pressure” in [8] (SC 3 and 8 mg/kg); “small transient increase in heart rate but had no effect on blood pressure” in data set [8] (single SC 1 mg/kg).

Take `CN(C)CCc1c[nH]c2cccc(OP(=O)(O)O)c12` [psilocybin]: the “duration of psychedelic state / effects” value in the data set with humans is 6 to 8 h.

As for `CN(C)CCc1c[nH]c2cccc(OC(=O)CCCC(=O)O)c12.Cl` [RE109, psilocin-4-glutarate, reference compound], the cleavage to psilocin entry in data set [9] was “rapid cleavage to psilocin”. For the same compound, in the data set on male Wistar rats (rat FST, day 28), the “climbing as share of escape behaviors” value was found to be 26% and the “swimming as share of escape behaviors” value worked out at 74%. In addition, the “mean swimming time relative to vehicle” value in the data set with male Wistar rats (rat FST, single 1 mg/kg dose) was “significantly increased”. Also, in the data set with male Wistar rats (rat FST, single 1 mg/kg dose, day 14 and 28), the “mean immobility time vs vehicle” value is “significant decrease”. Also, in the data set with male Wistar rats (rat, dosing day, 1 mg/kg), the “duration of distinctive serotonergic behaviors” value is listed as “approximately 3 hours”.

As to `CN(C)CCc1c[nH]c2cccc(O)c12` [psilocin], in [10], the distribution half-life is 1.95 h and the elimination half-life is 2.47 h. Moreover, the “oral bioavailability in man” value in data set [11] is “approximately 53%”.

As for `CC(C)N(CCc1c[nH]c2cccc(OC3OC(C(=O)O)C(O)C(O)C3O)c12)C(C)C` (stereo not drawn) [glucuronidation of 4-OH-DiPT], the “share of the total peak area” value in [12] is reported as 24.5%.
